From ChEMBL document CHEMBL1201862, “PubChem BioAssay data set” (2004)
Active and inactive are the calls of the source.

Legend:
HeLa = test: ATP-based viability loss in HeLa cells – cell-based, CellTiter-Glo luminescence, cherry-pick samples, cytotoxicity control for MITF activator project, dose response (AID 540259); type: functional; settings: Homo sapiens
[1] = luciferase reporter signal suppression in cells – H4 neuroglioma cells, luminescence, dose response (AID 1990); type: functional, cell-based
[2] = test system: Streptococcus sp. 'group A'; test: Streptococcus pyogenes SK(-)GAS viability under kanamycin – luminescence, BacTiterGlo, confirmation, counter-screen for streptokinase expression inhibitor project, dose response (AID 1900); type: functional, organism-based
[3] = Luminescence Cell-Based Dose Response HTS to Identify Inhibitors of 5'UTR Stem-Loop Driven Prion Protein mRNA Translation in H4 Neuroglioblastoma Cells. [Related pubchem assays: 1827 (Project Summary), 1813 (Primary HTS)]; type: functional
Beta-galactosidase = Beta-galactosidase (Escherichia coli, UniProt Q8VNN2); test: PubChem AID 485352; type: functional
Beta-galactosidase, sequence (Q8VNN2 whole entry): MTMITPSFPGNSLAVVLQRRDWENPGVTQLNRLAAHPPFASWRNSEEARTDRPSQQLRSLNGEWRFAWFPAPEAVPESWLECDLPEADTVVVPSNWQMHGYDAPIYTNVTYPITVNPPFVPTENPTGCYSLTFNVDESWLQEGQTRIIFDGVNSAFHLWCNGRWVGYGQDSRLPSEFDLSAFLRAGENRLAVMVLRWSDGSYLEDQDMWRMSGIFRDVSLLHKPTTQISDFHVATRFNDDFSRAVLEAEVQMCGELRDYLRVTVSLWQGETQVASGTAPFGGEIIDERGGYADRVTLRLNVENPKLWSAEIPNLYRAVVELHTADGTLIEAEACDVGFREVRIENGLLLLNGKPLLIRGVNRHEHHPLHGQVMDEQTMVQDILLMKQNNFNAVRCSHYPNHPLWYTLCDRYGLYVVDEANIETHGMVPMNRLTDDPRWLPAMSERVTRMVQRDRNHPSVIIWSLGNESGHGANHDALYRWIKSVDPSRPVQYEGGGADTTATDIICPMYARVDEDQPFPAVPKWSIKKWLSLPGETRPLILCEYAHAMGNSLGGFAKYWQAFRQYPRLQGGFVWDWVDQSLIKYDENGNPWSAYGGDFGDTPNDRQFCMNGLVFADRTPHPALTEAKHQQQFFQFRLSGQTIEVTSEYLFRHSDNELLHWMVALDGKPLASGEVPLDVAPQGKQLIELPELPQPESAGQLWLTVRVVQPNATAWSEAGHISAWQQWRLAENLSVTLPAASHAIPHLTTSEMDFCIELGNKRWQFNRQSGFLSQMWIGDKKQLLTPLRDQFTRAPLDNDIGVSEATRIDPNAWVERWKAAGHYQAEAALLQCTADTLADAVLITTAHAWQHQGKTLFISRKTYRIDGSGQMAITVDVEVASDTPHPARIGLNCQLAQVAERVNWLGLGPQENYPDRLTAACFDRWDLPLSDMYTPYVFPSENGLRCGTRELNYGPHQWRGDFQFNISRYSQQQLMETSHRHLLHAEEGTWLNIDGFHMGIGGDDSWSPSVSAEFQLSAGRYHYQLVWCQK

[4] = alpha-synuclein stem-loop luciferase translation blockers – H4 neuroglioma cells, luminescence, confirmation (AID 1988); type: functional, cell-based
Streptokinase A = target: T1, Streptokinase A (Streptococcus pyogenes serotype M1, UniProt P10520); test: viability-normalized secreted streptokinase activity reduction – plasminogen activation absorbance, OD405, dose response (AID 1914); type: functional, Streptococcus pyogenes M1 GAS;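 note: secreted streptokinase activity via plasminogen activation per viability signal from cell pellet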
T1 sequence (P10520 whole entry): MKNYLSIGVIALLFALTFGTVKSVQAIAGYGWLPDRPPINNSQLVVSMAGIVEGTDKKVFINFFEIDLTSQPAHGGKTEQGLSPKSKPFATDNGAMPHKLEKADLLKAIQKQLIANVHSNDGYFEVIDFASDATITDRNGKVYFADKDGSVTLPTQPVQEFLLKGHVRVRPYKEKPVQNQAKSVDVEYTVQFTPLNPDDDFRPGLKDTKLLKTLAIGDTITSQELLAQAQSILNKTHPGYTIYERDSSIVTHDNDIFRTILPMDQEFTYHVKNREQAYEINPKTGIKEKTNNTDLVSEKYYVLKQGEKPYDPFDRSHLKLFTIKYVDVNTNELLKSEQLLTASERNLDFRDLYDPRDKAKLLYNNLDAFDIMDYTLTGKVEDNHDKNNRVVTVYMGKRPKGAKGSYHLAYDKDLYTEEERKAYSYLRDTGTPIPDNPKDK

[5] = target: T2, Type-1 angiotensin II receptor (Homo sapiens, UniProt P30556); test: antagonism of angiotensin II type 1 receptor – cell-based, uHTS hits, selectivity assay for APJ receptor antagonist project, dose response (AID 463214); type: functional;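 note: antagonist potency against angiotensin II stimulated AT1 response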
T2 sequence (P30556 whole entry): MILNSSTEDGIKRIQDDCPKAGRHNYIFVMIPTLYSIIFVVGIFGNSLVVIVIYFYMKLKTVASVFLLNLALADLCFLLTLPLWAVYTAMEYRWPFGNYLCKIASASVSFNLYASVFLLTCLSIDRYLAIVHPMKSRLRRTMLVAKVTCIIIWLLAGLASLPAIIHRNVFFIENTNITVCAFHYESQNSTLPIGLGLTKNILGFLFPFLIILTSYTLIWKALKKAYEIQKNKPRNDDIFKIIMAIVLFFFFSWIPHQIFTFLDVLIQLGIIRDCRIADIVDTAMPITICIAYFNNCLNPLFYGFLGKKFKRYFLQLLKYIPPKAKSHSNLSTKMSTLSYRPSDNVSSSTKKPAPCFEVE

Streptococcus = test: GAS UMAA2166 growth inhibition – luminescence, BacTiterGlo, counter-screen for streptokinase expression inhibitor project, dose response (AID 1915); type: functional, organism-based;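 note: potency for reduction of bacterial viability or growth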
[6] = reduction of Shn3 3'UTR-driven luciferase in osteoblasts – cell-based, Clone20 osteoblasts, firefly luciferase, cherry-picked, dose response (AID 624132); type: functional;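 note: firefly luciferase luminescence from reporter carrying the Shn3 3'UTR in osteoblasts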
[7] = loss of viability in HepG2 cells – cell-based, CellTiter-Glo, cherry-picked, cytotoxicity control for Shn3 inhibitor project, dose response (AID 624134); type: functional
[8] = non-specific 3'UTR reporter inhibition in Clone20-Shn3RL – cell-based, Renilla luciferase, cherry-picked, counter-screen for Shn3 inhibitor project, dose response (AID 624133); type: functional
Cytochrome P450 2D6 = Cytochrome P450 2D6 (Homo sapiens, UniProt P10635);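 note: CYP2D6 member of a cytochrome P450 panel assay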
Cytochrome P450 2D6, sequence (P10635 whole entry): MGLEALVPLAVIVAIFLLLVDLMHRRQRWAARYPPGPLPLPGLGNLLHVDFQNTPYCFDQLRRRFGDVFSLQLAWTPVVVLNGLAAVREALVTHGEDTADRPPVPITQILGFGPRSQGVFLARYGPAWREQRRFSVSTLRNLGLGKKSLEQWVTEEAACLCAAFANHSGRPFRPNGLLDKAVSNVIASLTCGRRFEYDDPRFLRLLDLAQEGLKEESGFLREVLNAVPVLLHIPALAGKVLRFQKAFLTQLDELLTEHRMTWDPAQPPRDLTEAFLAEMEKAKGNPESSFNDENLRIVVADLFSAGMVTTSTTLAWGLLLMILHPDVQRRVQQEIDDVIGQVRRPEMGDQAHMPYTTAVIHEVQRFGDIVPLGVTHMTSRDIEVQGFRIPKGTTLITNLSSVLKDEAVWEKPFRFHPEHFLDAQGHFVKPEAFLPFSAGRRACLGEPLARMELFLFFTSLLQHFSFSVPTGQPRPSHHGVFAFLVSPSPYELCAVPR

Cytochrome P450 3A4 [9] = target: T3, Cytochrome P450 3A4 (Homo sapiens, UniProt P08684)
T3 sequence (P08684 whole entry): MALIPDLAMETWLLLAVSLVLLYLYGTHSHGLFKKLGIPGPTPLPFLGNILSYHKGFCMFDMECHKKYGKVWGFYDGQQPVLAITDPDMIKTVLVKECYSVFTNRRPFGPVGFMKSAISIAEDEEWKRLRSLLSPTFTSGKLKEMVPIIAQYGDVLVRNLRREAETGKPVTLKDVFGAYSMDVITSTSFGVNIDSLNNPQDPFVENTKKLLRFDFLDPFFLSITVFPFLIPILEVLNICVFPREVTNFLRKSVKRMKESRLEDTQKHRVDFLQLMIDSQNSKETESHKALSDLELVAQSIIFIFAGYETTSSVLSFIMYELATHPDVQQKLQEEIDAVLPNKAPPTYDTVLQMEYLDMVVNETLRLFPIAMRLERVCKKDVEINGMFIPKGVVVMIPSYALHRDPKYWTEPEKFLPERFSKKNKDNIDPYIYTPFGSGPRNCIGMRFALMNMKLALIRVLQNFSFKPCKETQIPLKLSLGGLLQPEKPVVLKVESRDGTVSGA

[10] = target: T4, Endoribonuclease toxin MazF (Escherichia coli K-12, UniProt P0AE70); test: activation of MazEF endoribonuclease cleavage – biochemical, fluorescence, single-stranded RNA substrate, uHTS hits, dose response (AID 588481); type: functional
T4 sequence (P0AE70 whole entry): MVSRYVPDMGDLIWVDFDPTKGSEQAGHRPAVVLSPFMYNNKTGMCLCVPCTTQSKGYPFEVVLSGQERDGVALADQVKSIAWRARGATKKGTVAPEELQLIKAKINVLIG

Insulin-degrading enzyme [11] = target: T5, Insulin-degrading enzyme (Homo sapiens, UniProt P14735); test: recombinant IDE activation, cell-free – biochemical, fluorescence polarization, counter-screen for IDE activator project, dose response (AID 588681)
T5 sequence (P14735 whole entry): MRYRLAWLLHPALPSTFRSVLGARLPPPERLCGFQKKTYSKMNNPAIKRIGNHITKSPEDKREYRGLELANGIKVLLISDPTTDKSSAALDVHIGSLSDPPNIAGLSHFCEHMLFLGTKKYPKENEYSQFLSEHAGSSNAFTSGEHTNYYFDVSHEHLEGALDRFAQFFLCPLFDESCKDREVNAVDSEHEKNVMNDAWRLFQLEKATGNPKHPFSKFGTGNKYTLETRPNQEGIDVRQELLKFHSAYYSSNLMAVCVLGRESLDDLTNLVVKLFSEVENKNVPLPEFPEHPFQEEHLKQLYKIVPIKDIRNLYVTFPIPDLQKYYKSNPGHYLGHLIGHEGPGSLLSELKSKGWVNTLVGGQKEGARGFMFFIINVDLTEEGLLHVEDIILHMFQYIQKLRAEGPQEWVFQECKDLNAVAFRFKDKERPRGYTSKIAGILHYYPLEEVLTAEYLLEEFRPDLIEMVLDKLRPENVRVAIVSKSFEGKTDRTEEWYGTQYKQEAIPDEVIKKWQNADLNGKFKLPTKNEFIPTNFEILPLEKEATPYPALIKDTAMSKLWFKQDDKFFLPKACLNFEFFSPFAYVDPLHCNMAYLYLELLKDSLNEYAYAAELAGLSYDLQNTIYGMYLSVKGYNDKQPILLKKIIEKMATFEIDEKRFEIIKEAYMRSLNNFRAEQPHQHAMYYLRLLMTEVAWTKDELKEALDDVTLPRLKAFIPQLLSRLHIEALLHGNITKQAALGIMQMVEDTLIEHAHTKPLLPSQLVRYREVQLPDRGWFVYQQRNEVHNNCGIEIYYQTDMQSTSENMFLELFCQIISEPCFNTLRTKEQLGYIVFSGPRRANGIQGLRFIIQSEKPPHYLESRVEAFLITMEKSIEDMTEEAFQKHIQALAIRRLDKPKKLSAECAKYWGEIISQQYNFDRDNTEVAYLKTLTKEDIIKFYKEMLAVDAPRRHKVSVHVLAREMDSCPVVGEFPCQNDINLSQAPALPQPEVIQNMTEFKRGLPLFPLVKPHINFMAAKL

Insulin-degrading enzyme [12] = target: T5, Insulin-degrading enzyme; test: cellular IDE activation of Abeta substrate cleavage – fluorescence polarization, HEK cells, dose response (AID 588439); type: functional, cell-based
[13] = target: T4, Endoribonuclease toxin MazF; test: substrate-only fluorescence increase artefacts – biochemical, single-stranded RNase substrate, counter-screen for MazEF activator project, dose response (AID 588502); type: functional
HEK293 [14] = test: membrane integrity loss in HEK cells – cell-based, fluorescence, cytotoxicity control for IDE activator project, dose response (AID 588440); type: functional; settings: Homo sapiens;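 note: cytotoxicity by LDH release measuring loss of membrane integrity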
HEK293 [15] = test: optical interference in Abeta FP readout, dose response, artefact control for IDE activator project, biochemical, fluorescence polarization (AID 588442); type: functional, cell-based; settings: Homo sapiens
Cytochrome P450 3A4 [16] = target: T3, Cytochrome P450 3A4; settings: Potency
Melanocortin receptor 4 = Melanocortin receptor 4 (Homo sapiens, UniProt P32245); test: inhibitors of MC4R cAMP signaling – cell-based, TR-FRET, biased antagonists, dose response (AID 602298); type: functional;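 note: antagonist potency against agonist-stimulated cAMP production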
Melanocortin receptor 4, sequence (P32245 whole entry): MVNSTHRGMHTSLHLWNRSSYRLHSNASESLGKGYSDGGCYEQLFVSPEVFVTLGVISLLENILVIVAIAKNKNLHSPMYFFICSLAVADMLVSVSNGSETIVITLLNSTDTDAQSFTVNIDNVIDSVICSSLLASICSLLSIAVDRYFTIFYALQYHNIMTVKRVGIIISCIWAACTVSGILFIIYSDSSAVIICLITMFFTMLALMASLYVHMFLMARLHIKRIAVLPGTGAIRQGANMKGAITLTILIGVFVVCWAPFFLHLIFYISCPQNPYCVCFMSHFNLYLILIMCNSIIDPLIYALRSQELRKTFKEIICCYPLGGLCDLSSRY

[17] = cAMP pathway inhibition in counterscreen cell line – TR-FRET cAMP detection, counter-screen for MC4R biased antagonist project, dose response (AID 602305); type: functional, cell-based;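 note: U2OS cells stimulated with forskolin near its EC80 as the cAMP inducer; potency is for inhibition of forskolin-stimulated cAMP signaling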
[18] = A549 cell cytotoxicity, dose response, cytotoxicity control, plate reader, cherry-pick, antagonist series (AID 743412); type: functional, cell-based
[19] = toxicity toward HepG2 liver cells – cell-based, plate reader, cherry-pick, antagonist series, cytotoxicity control, dose response (AID 743416); type: functional
[20] = blockers of bursicon-stimulated LGR2 cAMP reporter – cell-based, HEK293, CRE-luciferase reporter, cherry pick, set 2, dose response (AID 743343); type: functional;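 note: transfected cells were stimulated with diluted bursicon conditioned medium after compound addition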
[21] = blockade of melanocortin 4 receptor signaling – cell-based, plate reader, cherry pick, counter-screen for LGR2 antagonist project, dose response (AID 743444); type: functional;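 note: transfected HEK 293 cells stimulated with alpha-MSH peptide; potency of inhibitors of the alpha-MSH evoked signal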
[22] = viability loss in HEK293 cells – cell-based, plate reader, cherry-picked samples, cytotoxicity control, dose response (AID 743446); type: functional
[23] = target: Ras and Rab interactor 1/Tyrosine-protein kinase ABL1 (Homo sapiens, UniProt P00519+Q13671); type: functional;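 note: biochemical TR-FRET dose-response test measuring inhibition of binding between Rin1 and Abl proteins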
Ras and Rab interactor 1/Tyrosine-protein kinase ABL1, sequence (P00519 whole entry): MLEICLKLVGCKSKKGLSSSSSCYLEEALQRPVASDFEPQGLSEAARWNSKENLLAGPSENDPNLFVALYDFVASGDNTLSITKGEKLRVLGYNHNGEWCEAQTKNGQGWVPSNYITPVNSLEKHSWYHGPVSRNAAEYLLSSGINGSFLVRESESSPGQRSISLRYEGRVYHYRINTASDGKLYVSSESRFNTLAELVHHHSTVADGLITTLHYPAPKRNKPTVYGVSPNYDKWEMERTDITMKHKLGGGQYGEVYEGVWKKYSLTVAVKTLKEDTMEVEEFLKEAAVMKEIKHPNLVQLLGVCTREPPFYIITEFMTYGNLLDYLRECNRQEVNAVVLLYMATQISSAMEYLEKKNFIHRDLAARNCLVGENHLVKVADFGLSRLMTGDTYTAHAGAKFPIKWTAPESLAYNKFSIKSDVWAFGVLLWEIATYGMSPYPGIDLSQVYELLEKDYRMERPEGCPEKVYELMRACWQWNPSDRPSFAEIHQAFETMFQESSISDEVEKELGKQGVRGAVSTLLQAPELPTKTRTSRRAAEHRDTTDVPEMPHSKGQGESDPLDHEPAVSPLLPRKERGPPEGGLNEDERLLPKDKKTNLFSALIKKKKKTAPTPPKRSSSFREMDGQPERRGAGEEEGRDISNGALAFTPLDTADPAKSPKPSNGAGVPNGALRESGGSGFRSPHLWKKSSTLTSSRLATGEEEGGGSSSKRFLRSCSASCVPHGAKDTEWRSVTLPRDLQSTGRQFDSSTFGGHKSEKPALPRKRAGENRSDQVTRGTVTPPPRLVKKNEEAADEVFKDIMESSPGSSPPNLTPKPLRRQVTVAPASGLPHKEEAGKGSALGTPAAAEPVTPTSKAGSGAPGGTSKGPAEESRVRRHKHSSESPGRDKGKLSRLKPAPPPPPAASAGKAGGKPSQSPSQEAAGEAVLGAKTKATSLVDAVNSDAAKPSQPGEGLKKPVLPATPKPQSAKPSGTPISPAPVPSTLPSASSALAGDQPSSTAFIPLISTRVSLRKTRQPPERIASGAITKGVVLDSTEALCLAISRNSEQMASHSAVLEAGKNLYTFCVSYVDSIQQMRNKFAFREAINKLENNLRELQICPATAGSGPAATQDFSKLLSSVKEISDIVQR
Ras and Rab interactor 1/Tyrosine-protein kinase ABL1, sequence (Q13671 whole entry): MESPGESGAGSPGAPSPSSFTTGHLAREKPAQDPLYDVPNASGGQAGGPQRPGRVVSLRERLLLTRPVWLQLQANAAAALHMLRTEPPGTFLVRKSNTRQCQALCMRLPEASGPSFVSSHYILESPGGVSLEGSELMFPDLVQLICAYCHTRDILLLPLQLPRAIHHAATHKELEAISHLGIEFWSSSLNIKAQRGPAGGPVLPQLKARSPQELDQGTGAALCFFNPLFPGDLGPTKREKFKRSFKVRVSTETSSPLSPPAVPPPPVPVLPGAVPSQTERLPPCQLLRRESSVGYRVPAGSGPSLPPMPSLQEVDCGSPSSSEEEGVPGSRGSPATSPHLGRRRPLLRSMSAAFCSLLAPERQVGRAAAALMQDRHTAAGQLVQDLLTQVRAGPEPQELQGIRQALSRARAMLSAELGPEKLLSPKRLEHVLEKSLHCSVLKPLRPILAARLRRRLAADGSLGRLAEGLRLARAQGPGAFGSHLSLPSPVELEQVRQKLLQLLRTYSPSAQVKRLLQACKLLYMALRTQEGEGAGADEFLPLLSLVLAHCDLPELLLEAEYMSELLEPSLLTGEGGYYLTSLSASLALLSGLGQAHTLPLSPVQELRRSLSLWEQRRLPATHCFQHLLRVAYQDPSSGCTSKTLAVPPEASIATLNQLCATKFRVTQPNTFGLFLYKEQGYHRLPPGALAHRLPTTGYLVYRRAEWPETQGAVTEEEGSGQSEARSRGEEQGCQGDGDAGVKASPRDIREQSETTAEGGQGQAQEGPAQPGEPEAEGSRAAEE

Structure (SMILES): O=C(N=Nc1c(O)n(Cc2ccccc2)c2ccccc12)c1ccc(O)cc1
- AC50 (HeLa): 39.7 µM (active)

Structure (SMILES): Cc1ccc(CS(=O)(=O)c2ncc(Cl)c(C(=O)Nc3ccc(OC(F)F)cc3)n2)cc1
- EC50 [1]: > 120 µM (not active)
- EC50 [2]: 8.23 µM (active)
- EC50 [3]: 12.7 µM (active)
- EC50 (Beta-galactosidase): > 40 µM (inactive)
- EC50 [4]: 18.1 µM (active)
- EC50 (Streptokinase A): 2.07 µM (active)
- IC50 [5]: 11.3 µM (active)
- EC50 (Streptococcus): 22.1 µM (active)
- AC50 [6]: 2.34 µM (active)
- AC50 [7]: 61.5 µM (active)
- AC50 [8]: 13.5 µM (active)

Structure (SMILES): O=C(NNS(=O)(=O)c1ccc(Cl)cc1)C1CCN(Cc2ccccc2)CC1
- AC50 (Cytochrome P450 2D6): 1 µM (inconclusive)
- AC50 (Cytochrome P450 3A4 [9]): inconclusive

Structure (SMILES): Oc1ccc2c(c1)OCC1(O)Cc3cc(O)c(O)cc3C21 (stereo not given)
- EC50 [10]: > 99 µM (inactive)
- EC50 (Insulin-degrading enzyme [11]): > 54.7 µM (inactive)
- EC50 (Insulin-degrading enzyme [12]): > 54.7 µM (inactive)
- EC50 [13]: 3.96 µM (active)
- IC50 (HEK293 [14]): 85.1 µM (inactive)
- EC50 (HEK293 [15]): 53.6 µM (inactive)
- AC50 (Cytochrome P450 3A4 [16]): 31.6 µM (inconclusive)

Structure (SMILES): Cc1ccccc1CN1Cc2cnnn2-c2ccccc2C1C#N (stereo not given)
- IC50 (Melanocortin receptor 4): 7.25 µM (active)
- IC50 [17]: > 64.5 µM (inactive)
- AC50 [18]: 20.9 µM (active)
- AC50 [19]: 17 µM (active)
- AC50 [20]: 13.8 µM (active)
- AC50 [21]: 8.97 µM (active)
- AC50 [22]: 15.8 µM (active)

Structure (SMILES): COc1ccc(C(=O)N2CCC3(CCN(Cc4nccs4)CC3)CC2)cc1
- AC50 (Cytochrome P450 3A4 [9]): inconclusive

Structure (SMILES): Oc1cc(SCc2ccccc2)ncn1
- IC50 [23]: 0.514 µM (active)
